What was measured:
Assay in all cases: relative viability (nuclei count vs DMSO), 5 days (fraction); higher = more cells survive
Idelalisib + Lapatinib = compound: CC[C@H](Nc1ncnc2[nH]cnc12)c1nc2cccc(F)c2c(=O)n1-c1ccccc1 [Idelalisib] + CS(=O)(=O)CCNCc1ccc(-c2ccc3ncnc(Nc4ccc(OCc5cccc(F)c5)c(Cl)c4)c3c2)o1 [Lapatinib] (partner 2 µM)
Method in brief: (§1)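 Lung cancer cell lines were seeded in 1536-well plates and dosed by pin tool the next day, with either a single drug or a fixed anchor-drug dose combined with five library-drug doses (not always all listed) spaced in √10 steps. Five days later, one step fixed the cells and stained their nuclei (final 0.05% Triton X-100, 1% formaldehyde, 1 ug/ml Hoechst), and nuclei were counted on 4× images. Relative viability is the nuclei count in treated wells divided by the count in vehicle wells, and each value is the median of duplicate plates.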

Idelalisib + Olaparib = compound: CC[C@H](Nc1ncnc2[nH]cnc12)c1nc2cccc(F)c2c(=O)n1-c1ccccc1 [Idelalisib] + O=C(c1cc(Cc2n[nH]c(=O)c3ccccc23)ccc1F)N1CCN(C(=O)C2CC2)CC1 [Olaparib] (partner 8 µM)
Method in brief: as §1

Pemetrexed + Luminespib = compound: Nc1nc2[nH]cc(CCc3ccc(C(=O)N[C@@H](CCC(=O)O)C(=O)O)cc3)c2c(=O)[nH]1 [Pemetrexed] + CCNC(=O)c1noc(-c2cc(C(C)C)c(O)cc2O)c1-c1ccc(CN2CCOCC2)cc1 [Luminespib] (partner 0.01 µM)
Method in brief: as §1

Pemetrexed + Tozasertib = compound: Nc1nc2[nH]cc(CCc3ccc(C(=O)N[C@@H](CCC(=O)O)C(=O)O)cc3)c2c(=O)[nH]1 [Pemetrexed] + Cc1cc(Nc2cc(N3CCN(C)CC3)nc(Sc3ccc(NC(=O)C4CC4)cc3)n2)n[nH]1 [Tozasertib] (partner 0.1 µM)
Method in brief: as §1

| Cell Line | relative viability (Idelalisib + Lapatinib; first compound 0.04 µM) | relative viability (Idelalisib + Lapatinib; first compound 0.1265 µM) | relative viability (Idelalisib + Lapatinib; first compound 0.4 µM) | relative viability (Idelalisib + Lapatinib; first compound 1.265 µM) | relative viability (Idelalisib + Lapatinib; first compound 4 µM) | relative viability (Idelalisib + Olaparib; first compound 0.04 µM) | relative viability (Idelalisib + Olaparib; first compound 0.1265 µM) | relative viability (Idelalisib + Olaparib; first compound 0.4 µM) | relative viability (Idelalisib + Olaparib; first compound 1.265 µM) | relative viability (Idelalisib + Olaparib; first compound 4 µM) | relative viability (Pemetrexed + Luminespib; first compound 0.006325 µM) | relative viability (Pemetrexed + Luminespib; first compound 0.02 µM) | relative viability (Pemetrexed + Luminespib; first compound 0.06325 µM) | relative viability (Pemetrexed + Luminespib; first compound 0.2 µM) | relative viability (Pemetrexed + Tozasertib; first compound 0.006325 µM) | relative viability (Pemetrexed + Tozasertib; first compound 0.02 µM) | relative viability (Pemetrexed + Tozasertib; first compound 0.06325 µM) | relative viability (Pemetrexed + Tozasertib; first compound 0.2 µM) | relative viability (Pemetrexed + Luminespib; first compound 0.002 µM) | relative viability (Pemetrexed + Tozasertib; first compound 0.002 µM) |
| --- | --- | --- | --- | --- | --- | --- | --- | --- | --- | --- | --- | --- | --- | --- | --- | --- | --- | --- | --- | --- |
| NCI-H1437 | 0.764 | 0.909 | 0.734 | 0.929 | 0.672 | 0.618 | 0.636 | 0.634 | 0.658 | 0.607 | 1.06 | 0.997 | 0.856 | 0.487 | 0.402 | 0.37 | 0.357 | 0.228 |  |  |
| NCI-H1650 | 0.888 | 0.806 | 0.762 | 0.775 | 0.561 | 0.793 | 0.865 | 0.768 | 0.789 | 0.654 | 0.18 | 0.199 | 0.178 | 0.183 | 0.353 | 0.47 | 0.304 | 0.298 | 0.192 | 0.388 |
| NCI-H1651 | 0.707 | 1 | 0.577 | 0.825 | 0.868 | 0.19 | 0.171 | 0.184 | 0.161 | 0.179 | 0.792 | 0.965 | 0.983 | 0.732 | 0.645 | 0.703 | 0.658 | 0.644 | 0.845 | 0.684 |
| NCI-H1666 | 0.549 | 0.641 | 0.419 | 0.505 | 0.456 | 0.704 | 0.758 | 0.733 | 0.747 | 0.724 | 0.942 | 1.01 | 1.01 | 0.839 | 0.554 | 0.633 | 0.593 | 0.598 | 1 | 0.582 |
| NCI-H1734 | 0.93 | 1.03 | 0.989 | 0.958 | 0.98 | 0.578 | 0.578 | 0.561 | 0.607 | 0.704 | 0.192 | 0.219 | 0.206 | 0.218 | 0.221 | 0.268 | 0.284 | 0.248 | 0.208 | 0.249 |
| NCI-H1755 | 1.11 | 0.999 | 0.966 | 1.06 | 0.97 | 0.881 | 0.892 | 0.842 | 0.801 | 0.821 | 0.594 | 0.631 | 0.415 | 0.437 | 0.571 | 0.619 | 0.615 | 0.458 | 0.421 | 0.575 |
| NCI-H1793 | 0.664 | 0.635 | 0.406 | 0.583 | 0.651 | 0.957 | 0.764 |  | 0.566 | 0.529 | 0.201 | 0.152 | 0.118 | 0.237 | 0.286 | 0.402 | 0.323 | 0.403 | 0.397 | 0.3 |

From the supplement of paper PMC10307832
